Laboratory results taken from patent US20240208895A1, “BRANCHED-CHAIN AMINO ACID DERIVATIVES TO TREAT DISEASE” (INTRABIO LTD., priority 2021, published 2024).

Molecular target: T1, human transporter MCT1 (Homo sapiens, UniProt P53985)
T1 construct: expressed in transfected cells; host or cells: MDCK-II
T1 sequence (P53985 1-500): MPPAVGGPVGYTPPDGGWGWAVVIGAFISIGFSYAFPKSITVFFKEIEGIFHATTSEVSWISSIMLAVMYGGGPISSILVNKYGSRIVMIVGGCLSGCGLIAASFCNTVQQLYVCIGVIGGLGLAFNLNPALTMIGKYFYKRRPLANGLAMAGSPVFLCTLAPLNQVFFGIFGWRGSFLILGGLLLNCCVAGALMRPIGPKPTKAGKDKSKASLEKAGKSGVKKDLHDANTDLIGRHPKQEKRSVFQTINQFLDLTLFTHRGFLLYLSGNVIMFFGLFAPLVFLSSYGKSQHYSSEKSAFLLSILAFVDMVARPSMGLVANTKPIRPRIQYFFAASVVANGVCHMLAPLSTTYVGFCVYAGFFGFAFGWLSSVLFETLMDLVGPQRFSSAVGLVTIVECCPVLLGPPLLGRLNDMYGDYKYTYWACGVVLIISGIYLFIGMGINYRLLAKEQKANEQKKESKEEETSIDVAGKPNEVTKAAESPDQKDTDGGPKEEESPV
Assay: Human MCT1-mediated transport in MDCK-II cells (Example 9)
Type: cell-based
Settings: MDCK-II cells expressing human MCT1, pH 5.5, 1 minute, normalized to Vmax of thiophene-2-glyoxylic acid
Description: Representative Compounds of the Disclosure are tested in (i) MDCK-II cells expressing human transporter MCT1; and (ii) MDCK-II cells transfected with a control vector (GFP) as control cells for human transporter MCT1. 2-Thiophene-glyoxylic acid (TPGA) is the positive control for transport.
• 1. A stock solution is prepared with the test article (Compound of the Disclosure) in DMSO or in HBSS-Bis-Tris. • 2. Final assay solutions of probe substrate or test article contain 0.5% (v/v) DMSO (vehicle control). • 3. Test article concentrations are 10 μM, 30 μM, 100 μM, 300 μM, 1000 μM, 3000 μM, and 10000 μM.
MDCK-II cells are maintained in DMEM with low glucose and 10% FBS. Cells passages up to 40 are seeded at 60K±10K cells/well on 96-well, transwell membrane plates approximately 24 hours before transfection. Transport assays are carried out approximately 48 hours after transfection.
• 1. Test system: • a. Test system: 96-well cell culture plate with wells containing a monolayer of MDCK-II cells grown on a permeable support and a corresponding 96-well receiver tray. Cell plates are maintained at 37° C. in 5% CO2 atmosphere prior to initiation of the transport experiment. • b. Pre-incubation is conducted in HBSS, pH 7.4. Transport experiments are conducted in HBSS with Bis-Tris, pH 5.5, without phenol red. Pre-incubation and incubation are conducted at ambient temperatures. • c. Each condition is run in triplicate wells. • d. […] The result from the control cells is used to correct for substrate permeation by routes other than the transporter being investigated in the study. • 2. Prepare the 96-well plate as follows: • a. Wash the basal side of the culture plate insert with HBSS three times. After the final wash, blot the basal side of the wells and keep this side dry. • b. Wash the culture plate wells with HBSS three times. The wells of the culture plate serve as the apical compartment. • 3. Aspirate the final wash from the culture plate. The wells of the culture plate serve as the apical compartment. Add 100 μL of HBSS pH 7.4 pre-incubation buffer containing vehicle to the apical compartments. • 4. Incubate the plates with orbital shaking at approximately 60 RPM for the pre-incubation time specified in Table 1 of this protocol. • 5. Aspirate the pre-incubation buffer from the apical compartment of the plates. Add 100 μL of the experimental buffer that is prepared as follows and maintained at ambient temperatures. • a. For the probe substrate transport assay, the HBSS with Bis-Tris, pH 5.5 in each well contains the probe substrate at 500 μM (positive control for transport) and vehicle control. • b. For the test article assays, the HBSS with Bis-Tris, pH 5.5 in each well contains the test article at 10 μM, 30 μM, 100 μM, 300 μM, 1000 μM, 3000 μM, and 10000 μM. • 6. Incubate at ambient temperature with orbital shaking at approximately 60 RPM for the incubation time of 1 minute. • 7. […]
• 1. The amount of radiolabeled probe substrate will be quantified with radiometric detection on a 1450 Microbeta (Perkin-Elmer). • 2. The amount of non-radiolabeled probe substrate or test article will be quantified by LC-MS/MS. • 3. […] For uptake assays, the net transporter-mediated uptake rate (V) of the substrate by each SLC transporter will be calculated as follows:
[formula] • 5. For transport kinetics assessment, Km and Vmax will be calculated by non-linear regression using the Michaelis-Menten equation. • 6. […]

uptake mediated by MCT1: transported
Compound: CC(=O)N[C@@H](CC(C)C)C(=O)O [N-acetyl-L-leucine]
